Laboratory results from patent US5273982A, “Acetic acid derivatives” (Hoffmann-La Roche Inc., priority 1990, dated 1993).

biological target: T1, fibrinogen receptor, glycoprotein IIb/IIIa (Homo sapiens, UniProt P05106+P08514); assay: Inhibition of fibrinogen binding to immobilised fibrinogen receptor glycoprotein IIb/IIIa (ELISA); settings: glycoprotein IIb/IIIa from human blood platelets, bound to microtiter plates, read-out: IC50 (concentration required to inhibit the binding of fibrinogen to the immobilised receptor by 50%)
T1 construct: obtained from Triton X-100 extracts of human blood platelets; from tissue; host or cells: human blood platelets (Triton X-100 extract)
T1 sequence (P08514 32-887 limits assumed): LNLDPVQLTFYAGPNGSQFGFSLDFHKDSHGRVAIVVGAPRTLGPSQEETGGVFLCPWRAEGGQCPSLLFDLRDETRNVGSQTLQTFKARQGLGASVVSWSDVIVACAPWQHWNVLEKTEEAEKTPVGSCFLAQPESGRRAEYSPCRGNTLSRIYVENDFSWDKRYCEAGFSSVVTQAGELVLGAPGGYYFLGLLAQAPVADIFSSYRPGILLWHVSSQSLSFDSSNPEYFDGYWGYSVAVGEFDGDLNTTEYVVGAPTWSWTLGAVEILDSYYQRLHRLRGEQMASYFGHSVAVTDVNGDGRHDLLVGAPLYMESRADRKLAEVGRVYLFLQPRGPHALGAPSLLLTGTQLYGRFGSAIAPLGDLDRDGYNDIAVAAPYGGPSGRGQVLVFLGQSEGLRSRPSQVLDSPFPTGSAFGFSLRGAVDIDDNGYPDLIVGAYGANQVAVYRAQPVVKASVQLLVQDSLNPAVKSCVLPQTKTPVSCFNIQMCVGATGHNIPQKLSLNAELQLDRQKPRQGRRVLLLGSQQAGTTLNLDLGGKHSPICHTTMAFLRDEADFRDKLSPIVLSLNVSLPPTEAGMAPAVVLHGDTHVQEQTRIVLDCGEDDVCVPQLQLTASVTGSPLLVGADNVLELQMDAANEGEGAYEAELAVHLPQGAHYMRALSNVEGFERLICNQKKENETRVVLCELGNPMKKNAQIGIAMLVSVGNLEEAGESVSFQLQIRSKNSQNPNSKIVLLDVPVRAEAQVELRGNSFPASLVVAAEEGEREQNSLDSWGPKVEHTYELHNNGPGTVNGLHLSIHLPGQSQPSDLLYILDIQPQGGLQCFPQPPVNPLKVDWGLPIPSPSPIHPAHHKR
T1 sequence (P08514 891-1039 partner limits assumed): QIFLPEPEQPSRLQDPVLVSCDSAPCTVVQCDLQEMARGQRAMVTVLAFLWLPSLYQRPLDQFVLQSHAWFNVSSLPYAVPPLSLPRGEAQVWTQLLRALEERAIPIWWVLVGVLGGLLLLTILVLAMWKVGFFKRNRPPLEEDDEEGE
T1 sequence (P05106 27-788): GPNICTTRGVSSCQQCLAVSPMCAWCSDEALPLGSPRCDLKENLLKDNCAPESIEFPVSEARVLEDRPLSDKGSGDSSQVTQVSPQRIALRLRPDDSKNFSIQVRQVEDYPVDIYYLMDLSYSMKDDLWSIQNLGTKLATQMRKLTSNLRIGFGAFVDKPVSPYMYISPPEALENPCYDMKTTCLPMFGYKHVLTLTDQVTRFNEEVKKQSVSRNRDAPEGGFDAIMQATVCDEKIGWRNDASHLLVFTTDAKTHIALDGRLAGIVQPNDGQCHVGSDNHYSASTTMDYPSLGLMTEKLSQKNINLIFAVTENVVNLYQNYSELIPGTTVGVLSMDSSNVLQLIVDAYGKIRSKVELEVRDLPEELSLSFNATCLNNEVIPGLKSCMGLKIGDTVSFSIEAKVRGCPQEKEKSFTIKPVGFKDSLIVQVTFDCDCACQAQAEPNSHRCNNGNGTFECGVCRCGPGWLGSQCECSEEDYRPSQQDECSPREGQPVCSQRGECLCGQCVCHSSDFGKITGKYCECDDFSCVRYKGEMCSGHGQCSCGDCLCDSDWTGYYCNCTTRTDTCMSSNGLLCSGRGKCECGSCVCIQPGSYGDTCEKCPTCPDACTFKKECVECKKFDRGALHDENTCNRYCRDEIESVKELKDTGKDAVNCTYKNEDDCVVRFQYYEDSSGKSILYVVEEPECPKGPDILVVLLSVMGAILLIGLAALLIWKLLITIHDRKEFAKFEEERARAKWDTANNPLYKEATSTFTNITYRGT
Text: The inhibition of fibrinogen […] on the fibrinogen receptor, glycoprotein IIb/IIIa, can be detected as follows:
Glycoprotein IIb/IIIa is obtained from Triton X-100 extracts of human blood platelets and purified by lectin affinity chromatography (Analytical Biochemistry 151, 1985, 169-177) and chromatography on an Arg-Gly-Asp-Ser affinity column (Science 231, 1986, 1559-62). The receptor protein thus obtained is bound to microtiter plates. The specific binding of fibrinogen to the immobilized receptor is determined with the aid of an ELISA system ("enzyme-linked immunosorbent assay"). The IC50 values below correspond to the concentration of the test substance which is required in order to inhibit the binding of fibrinogen to the immobilised receptor by 50%: […]

Row | SMILES | IC50 [nM]
1 | N=C(N)c1ccc(C(=O)N2CCCC(C(=O)NCCC(=O)O)C2)cc1 (racemic) [Example 7, rac-N-[[1-(p-amidinobenzoyl)-3-piperi-dinyl]carbonyl]-β-alanine] | 27
2 | N=C(N)c1ccc(C(=O)NC(CC(=O)NCCC(=O)O)c2ccccc2)cc1 (racemic) [Example 10, N-[(DL)-N-(p-amidinobenzoyl)-3-phenyl-β-alanyl]-β-alanine] | 22
3 | N=C(N)N1CCC(C(=O)NCCC(=O)N[C@@H](CC(=O)O)C(=O)N[C@@H](Cc2ccccc2)C(=O)O)CC1 [Example 2, N-[N-[N-(1-amidino-4-piperidinylcarbonyl)-β-alanyl]-L-α-aspartyl]-3-phenyl-L-alanine] | 130
4 | N=C(N)c1ccc(CC(=O)NCCC(=O)N[C@@H](CC(=O)O)C(=O)N[C@@H](Cc2ccccc2)C(=O)O)cc1 [Example 3, N-[N-[N-(p-amidinophenylacetyl)-β-alanyl]-L-α-aspartyl]-3-phenyl-L-alanine] | 45
5 | N=C(N)c1ccc(NC(=O)CCCC(=O)N[C@@H](CC(=O)O)C(=O)N[C@@H](Cc2ccccc2)C(=O)O)cc1 [Example 4, N-[N-[4-(p-amidinophenylcarbamoyl)butyryl]-L-α-aspartyl]-3-phenyl-L-alanine] | 35
6 | N=C(N)c1ccc(C(=O)NCCCC(=O)NCCC(=O)O)cc1 [Example 8, N-[4-(p-amidinobenzamido)butyryl]-β-alanine] | 100
7 | CC(C)C[C@H](NC(=O)[C@H](CC(=O)O)NC(=O)CCNC(=O)c1ccc(C(=N)N)cc1)C(=O)OC(C)C [Example 18, N-[N-[N-(p-amidino-benzoyl)-β-alanyl]-L-α-aspartyl]-L-leucine isopropyl ester] | 10
8 | N=C(N)c1ccc(C(=O)N2CC[C@@H](C(=O)N[C@@H](CC(=O)O)C(=O)N[C@@H](Cc3ccccc3)C(=O)O)C2)cc1 [Example 31, N-[N-[[(R)-1-(p-amidinobenzoyl)-3-pyrrolidinyl]carbonyl]-L-α-aspartyl]-3-phenyl-L-alanine] | 12.8

Other lines, results leading:

Row | IC50 [nM] | SMILES
9 | 0.3 | N=C(N)c1ccc(C(=O)NCCC(=O)N[C@@H](CC(=O)O)C(=O)N[C@@H](Cc2ccccc2)C(=O)O)cc1 [Example 1, N-[N-[N-(p-amidinobenzoyl)-β-alanyl]-L-α-aspartyl]-3-phenyl-L-alanine]
10 | 10 | N=C(N)c1ccc(CCNC(=O)CC(=O)N[C@@H](CC(=O)O)C(=O)N[C@@H](Cc2ccccc2)C(=O)O)cc1 [Example 5, N-[N-[(p-amidinophenethylcarbamoyl)acetyl]-L-α-aspartyl]-3-phenyl-L-alanine]
11 | 10 | CC(C)[C@H](NC(=O)[C@H](CC(=O)O)NC(=O)CCCNC(=O)c1ccc(C(=N)N)cc1)C(=O)O [Example 6, N-[N-[4-(p-amidinobenzamido)butyryl]-L-α-aspartyl]-L-valine]
12 | 5 | N=C(N)c1ccc(C(=O)NCCC(=O)NCCC(=O)O)cc1 [Example 9, N-[N-(p-amidino-benzoyl)-β-alanyl]-β-alanine]
13 | 2.5 | N=C(N)c1ccc(C(=O)NCCCCC(=O)N[C@@H](CC(=O)O)C(=O)N[C@@H](Cc2ccccc2)C(=O)O)cc1 [Example 11, N-[N-[5-(p-amidinobenzamido)valeryl]-L-α-aspartyl]-3-phenyl-L-alanine]
14 | 6.7 | CC(C)COC(=O)[C@H](CC(=O)O)NC(=O)CCCCNC(=O)c1ccc(C(=N)N)cc1 [Example 25, isobutyl N-[5-(p-amidinobenzamido)valeryl]-L-α-aspartate]
15 | 5 | CCOC(=O)[C@H](CO)NC(=O)[C@H](CC(=O)O)NC(=O)CCNC(=O)c1ccc(C(=N)N)cc1 [Example 28, N-[N-[N-(p-amidinobenzoyl)-β-alanyl]-L-α-aspartyl]-L-serine ethyl ester]
16 | 3.6 | CC(C)[C@H](NC(=O)[C@H](CC(=O)O)NC(=O)CCNC(=O)c1ccc(C(=N)N)cc1)C(=O)O [Example 38, N-[N-[N-(p-amidinobenzoyl)-β-alanyl]-L-α-aspartyl]-L-valine]
17 | 1.2 | N=C(N)c1ccc(C(=O)NCCC(=O)N[C@@H](CC(=O)O)C(=O)N[C@@H](Cc2ccc(O)cc2)C(=O)O)cc1 [Example 39]
